Laboratory results as given in ChEMBL document CHEMBL1681705, “Optimisation of ITK inhibitors through successive iterative design cycles” (Bioorg Med Chem Lett, 2011).

Key:
[1] = target: T1, Ephrin type-B receptor 1 (Homo sapiens) (UniProt P54762); assay: Inhibition of EphB1 at 0.1 uM; values are per cent of control
T1 sequence (whole entry): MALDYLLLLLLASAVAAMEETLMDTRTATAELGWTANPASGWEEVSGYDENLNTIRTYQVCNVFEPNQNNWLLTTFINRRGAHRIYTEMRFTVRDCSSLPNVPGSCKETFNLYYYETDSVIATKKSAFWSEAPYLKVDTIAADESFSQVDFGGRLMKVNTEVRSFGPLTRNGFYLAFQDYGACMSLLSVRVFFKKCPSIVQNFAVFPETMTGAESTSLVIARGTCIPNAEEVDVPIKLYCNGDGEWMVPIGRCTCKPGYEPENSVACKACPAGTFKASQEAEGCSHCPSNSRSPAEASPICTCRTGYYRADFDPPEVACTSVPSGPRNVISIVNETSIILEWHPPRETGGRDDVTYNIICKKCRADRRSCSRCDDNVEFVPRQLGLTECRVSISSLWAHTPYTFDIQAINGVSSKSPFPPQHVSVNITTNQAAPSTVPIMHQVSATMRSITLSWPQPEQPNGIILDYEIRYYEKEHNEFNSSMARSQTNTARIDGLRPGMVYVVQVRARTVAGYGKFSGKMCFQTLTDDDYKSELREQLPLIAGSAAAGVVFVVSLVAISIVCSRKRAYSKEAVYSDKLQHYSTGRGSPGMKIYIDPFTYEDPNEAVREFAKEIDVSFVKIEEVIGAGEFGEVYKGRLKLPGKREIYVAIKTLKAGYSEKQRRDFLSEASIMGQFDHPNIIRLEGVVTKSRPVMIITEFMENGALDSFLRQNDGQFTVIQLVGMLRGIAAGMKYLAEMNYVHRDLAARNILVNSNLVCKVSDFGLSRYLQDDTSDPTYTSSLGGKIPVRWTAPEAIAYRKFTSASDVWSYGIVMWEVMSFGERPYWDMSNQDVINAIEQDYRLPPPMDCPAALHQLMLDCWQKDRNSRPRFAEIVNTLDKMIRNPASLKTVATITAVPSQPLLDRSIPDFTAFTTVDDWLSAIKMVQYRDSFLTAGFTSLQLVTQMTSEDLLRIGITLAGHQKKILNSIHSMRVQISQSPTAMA

[2] = target: Platelet-derived growth factor receptor beta (Homo sapiens) (UniProt P09619); assay: Inhibition of PDGFRbeta at 0.1 uM; values are per cent of control
[3] = target: T2, Protein kinase C epsilon type (Homo sapiens) (UniProt Q02156); assay: Inhibition of PKCepsilon at 1 uM; values are per cent of control
T2 sequence (whole entry): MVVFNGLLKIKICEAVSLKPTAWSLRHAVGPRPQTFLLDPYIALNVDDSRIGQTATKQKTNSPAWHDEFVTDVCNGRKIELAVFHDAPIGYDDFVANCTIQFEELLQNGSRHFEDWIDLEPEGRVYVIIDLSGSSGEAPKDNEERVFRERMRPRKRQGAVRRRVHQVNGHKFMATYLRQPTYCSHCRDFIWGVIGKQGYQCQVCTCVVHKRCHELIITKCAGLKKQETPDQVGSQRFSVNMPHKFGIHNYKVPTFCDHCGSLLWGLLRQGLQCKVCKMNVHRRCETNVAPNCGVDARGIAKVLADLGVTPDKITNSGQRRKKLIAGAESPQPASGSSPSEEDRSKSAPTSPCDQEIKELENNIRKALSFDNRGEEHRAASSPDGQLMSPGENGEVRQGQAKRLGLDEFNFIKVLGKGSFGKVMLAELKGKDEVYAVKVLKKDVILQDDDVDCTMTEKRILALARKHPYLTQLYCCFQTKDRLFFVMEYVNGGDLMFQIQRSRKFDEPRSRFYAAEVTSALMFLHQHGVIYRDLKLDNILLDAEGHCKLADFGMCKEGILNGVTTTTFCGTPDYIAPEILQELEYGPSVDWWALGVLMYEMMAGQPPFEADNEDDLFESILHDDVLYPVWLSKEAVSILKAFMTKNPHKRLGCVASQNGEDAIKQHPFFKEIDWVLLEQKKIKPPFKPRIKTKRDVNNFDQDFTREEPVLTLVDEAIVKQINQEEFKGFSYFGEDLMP

[4] = target: T3, Inhibitor of nuclear factor kappa-B kinase subunit beta (Homo sapiens) (UniProt O14920); assay: Inhibition of IKK-beta at 1 uM; values are per cent of control
T3 sequence (whole entry): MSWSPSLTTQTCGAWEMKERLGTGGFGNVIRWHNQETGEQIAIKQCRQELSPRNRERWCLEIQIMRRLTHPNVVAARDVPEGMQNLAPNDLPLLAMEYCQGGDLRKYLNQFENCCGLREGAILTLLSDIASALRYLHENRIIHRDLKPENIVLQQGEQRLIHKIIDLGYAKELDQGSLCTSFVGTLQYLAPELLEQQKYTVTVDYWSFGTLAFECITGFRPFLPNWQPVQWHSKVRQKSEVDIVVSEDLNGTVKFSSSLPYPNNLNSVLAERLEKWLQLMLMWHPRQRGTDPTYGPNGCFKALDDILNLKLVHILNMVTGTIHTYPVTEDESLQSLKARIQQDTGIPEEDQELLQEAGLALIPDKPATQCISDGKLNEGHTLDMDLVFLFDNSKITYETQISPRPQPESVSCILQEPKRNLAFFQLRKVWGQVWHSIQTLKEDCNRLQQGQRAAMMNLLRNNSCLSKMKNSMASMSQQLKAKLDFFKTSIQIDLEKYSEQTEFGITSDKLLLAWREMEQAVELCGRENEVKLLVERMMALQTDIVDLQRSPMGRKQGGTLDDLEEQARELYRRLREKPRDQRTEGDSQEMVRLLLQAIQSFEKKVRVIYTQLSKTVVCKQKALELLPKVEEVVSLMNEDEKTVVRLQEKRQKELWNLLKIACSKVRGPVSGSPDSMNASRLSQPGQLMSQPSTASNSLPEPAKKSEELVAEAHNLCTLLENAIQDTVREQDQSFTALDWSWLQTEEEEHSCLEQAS

[5] = target: High affinity nerve growth factor receptor (Homo sapiens) (UniProt P04629); assay: Inhibition of TrkA at 0.1 uM; values are per cent of control
Chain of High affinity nerve growth factor receptor (Homo sapiens) (P04629 33-796 limits assumed): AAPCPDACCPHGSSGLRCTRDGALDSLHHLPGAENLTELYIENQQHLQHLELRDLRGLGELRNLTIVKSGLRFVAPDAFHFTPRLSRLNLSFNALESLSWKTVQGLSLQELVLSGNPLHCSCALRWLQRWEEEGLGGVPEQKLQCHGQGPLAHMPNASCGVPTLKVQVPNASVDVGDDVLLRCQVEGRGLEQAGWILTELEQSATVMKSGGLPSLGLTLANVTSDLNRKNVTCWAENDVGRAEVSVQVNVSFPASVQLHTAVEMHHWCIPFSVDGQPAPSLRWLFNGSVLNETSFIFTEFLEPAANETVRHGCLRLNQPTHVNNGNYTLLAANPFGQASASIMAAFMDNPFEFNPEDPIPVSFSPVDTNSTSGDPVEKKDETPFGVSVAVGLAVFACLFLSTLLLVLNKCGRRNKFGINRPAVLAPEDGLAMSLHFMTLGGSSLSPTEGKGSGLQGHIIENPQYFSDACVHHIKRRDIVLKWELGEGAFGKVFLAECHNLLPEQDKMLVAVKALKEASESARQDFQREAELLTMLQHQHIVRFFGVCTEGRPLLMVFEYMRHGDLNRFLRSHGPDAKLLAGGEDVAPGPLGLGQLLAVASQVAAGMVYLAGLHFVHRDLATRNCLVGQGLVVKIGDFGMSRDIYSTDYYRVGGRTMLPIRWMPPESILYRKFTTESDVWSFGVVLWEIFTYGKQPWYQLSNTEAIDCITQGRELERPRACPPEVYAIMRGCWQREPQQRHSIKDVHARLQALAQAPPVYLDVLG

Chain of Platelet-derived growth factor receptor beta (Homo sapiens) (P09619 whole entry): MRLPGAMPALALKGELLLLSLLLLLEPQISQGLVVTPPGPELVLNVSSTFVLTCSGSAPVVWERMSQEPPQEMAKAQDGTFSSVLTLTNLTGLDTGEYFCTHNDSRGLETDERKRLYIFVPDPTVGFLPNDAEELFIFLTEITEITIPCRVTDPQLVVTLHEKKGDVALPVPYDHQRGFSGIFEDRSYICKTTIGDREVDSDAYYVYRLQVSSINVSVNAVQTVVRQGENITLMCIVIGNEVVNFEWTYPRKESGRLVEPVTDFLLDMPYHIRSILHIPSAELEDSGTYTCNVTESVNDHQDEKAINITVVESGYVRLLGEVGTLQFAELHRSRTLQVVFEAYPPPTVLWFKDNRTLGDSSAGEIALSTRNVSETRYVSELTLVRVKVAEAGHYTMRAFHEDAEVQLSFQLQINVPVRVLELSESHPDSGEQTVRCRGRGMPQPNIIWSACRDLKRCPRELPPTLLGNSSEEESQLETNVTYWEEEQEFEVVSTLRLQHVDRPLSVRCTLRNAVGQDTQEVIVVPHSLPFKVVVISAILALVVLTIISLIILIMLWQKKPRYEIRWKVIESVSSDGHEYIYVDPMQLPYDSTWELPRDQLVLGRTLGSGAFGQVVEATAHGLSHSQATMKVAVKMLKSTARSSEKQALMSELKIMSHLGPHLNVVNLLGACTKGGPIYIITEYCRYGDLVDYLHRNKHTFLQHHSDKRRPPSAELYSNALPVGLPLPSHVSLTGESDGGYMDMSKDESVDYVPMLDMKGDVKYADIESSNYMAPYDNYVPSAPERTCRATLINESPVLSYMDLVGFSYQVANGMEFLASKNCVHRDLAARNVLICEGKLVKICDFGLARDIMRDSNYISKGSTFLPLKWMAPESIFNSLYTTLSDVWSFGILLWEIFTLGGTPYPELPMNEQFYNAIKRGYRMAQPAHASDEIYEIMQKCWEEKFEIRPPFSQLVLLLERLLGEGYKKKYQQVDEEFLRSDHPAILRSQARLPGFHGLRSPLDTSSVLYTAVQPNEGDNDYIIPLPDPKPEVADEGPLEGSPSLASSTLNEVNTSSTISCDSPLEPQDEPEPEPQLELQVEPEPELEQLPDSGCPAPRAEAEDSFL

| SMILES | residual activity [1] | residual activity [2] | residual activity [3] | residual activity [4] | residual activity [5] |
| --- | --- | --- | --- | --- | --- |
| Cc1ccc2cc(-c3n[nH]c4ccc(NC5CCNC5)cc34)[nH]c2c1 (stereo not given) | 29% | 85% | 21% | 76% | -1% |
| Cc1ccc2cc(-c3n[nH]c4ccc(NC5CCN(Cc6ccccc6)CC5)cc34)[nH]c2c1 | 73% | 82% | 67% | 102% | 10% |
